# Reference: patent publication US20220117938A1, “COMBINATON THERAPY WITH A DON PRODRUG AND AN IMMUNE CHECKPOINT INHIBITOR” (DRACEN PHARMACEUTICALS, INC., priority 2019, published 2022)
# Test system: MC-38 tumors
# Assay: Anti-tumor efficacy of Compound 1 with and without anti-PD-1 in the subcutaneous MC-38 model (Example 2D)
# Assay type: in vivo, Mus musculus
# Details: for MST: endpoint tumor volume 2000 mm^3; for T/C / TGI: day 16
# Method: Female C57BL/6 mice were inoculated subcutaneously at right flank with MC-38 cells for tumor development. Five days after tumor inoculation, 48 mice with tumor size ranging from 50-100 mm^3 (average tumor size 72 mm^3) were selected and assigned into six groups using stratified randomization with 8 mice per group based upon their tumor volumes. The treatments were started from the day of randomization (defined as D0), Group 1 was treated with Vehicle (Tween 80:Ethanol:Saline—5:5:90 v/v/v), s.c., qd×14, Group 2 was treated with Anti-PD-1 10 mg/kg i.p. q4d×4, Group 3 was treated with Compound 1 0.3 mg/kg s.c. q.d.×14, Group 4 was treated with Compound 1 0.3 mg/kg s.c. q.d.×14+Anti-PD-1 10 mg/kg i.p. q4d×4, Group 5 was treated with Compound 1 1 mg/kg s.c. q.d.×14, Group 6 was treated with Compound 1 1 mg/kg s.c. q.d.×14+Anti-PD-1 10 mg/kg i.p. q4d×4. The tumor sizes were measured three times per week during the treatment. The entire study was terminated on D37 after start of the treatment.
# Animal Species: Mus musculus; Strain: […]; Age: 6-8 weeks; Sex: female; Body weight (at treatment start): 18-22 g.
# The MC-38 tumor cells were maintained in vitro as a monolayer culture in DMEM medium supplemented with 10% heat inactivated fetal bovine serum and 100 μg/mL penicillin streptomycin at 37° C. in an atmosphere of 5% CO2 in air. The tumor cells were routinely subcultured twice weekly by trypsin-EDTA treatment. The cells growing to a confluency around 70%-80% were harvested and counted for tumor inoculation. The cultured MC-38 were harvested, re-suspended in base medium at a density of 1×10^7 cells/mL with viability >90%. Each mouse was inoculated subcutaneously at the right flank with 1×10^6 cells in 0.1 ml base medium for tumor development.
# The treatments were started on day 5 after tumor inoculation when the tumor size reached 50-100 mm^3 (average tumor size 72 mm^3). Each group consisted of 8 tumor bearing mice.
# The testing article was administrated at the dosing volume indicated to the mice according to the predetermined regimen as shown Table 2D-1. Testing article formulations were prepared according to standard procedures. Details regarding tumor measurements and endpoints, and statistical analysis are provided in EXAMPLE 3.
# Tumor sizes were measured three times a week in two dimensions using a caliper, and the volume expressed in mm^3 using the formula: V=0.5 a×b^2 where a and b are the long and short diameters of the tumor, respectively. The tumor sizes were then used for the calculations of both tumor growth inhibition (TGI) and T/C values.
# TGI is calculated for each group using the formula: […]
# TVTreatment_DayN is the average tumor volume of a treatment group on a given day, TVTreatment_Day0 is the average tumor volume of the treatment group on the first day of treatment, TVVehicle_DayN is the average tumor volume of the vehicle control group on a given day, and TVVehicle_Day0 is the average tumor volume of the vehicle group on the first day of treatment.
# The T/C value (in percent) is an indication of antitumor effectiveness, T/C (%)=RTVTreatment/RTVControl×100% (RTVTreatment: the mean RTV of the treatment group; RTVControl: the mean RTV of the vehicle treated group). RTV (relative tumor volume)=TVDayN/TVDay0. TVDayN and TVDay0 is the tumor volume on day N and Day 0 respectively. T/C (%)≤42% is considered as significant antitumor activity and <10% is considered as highly significant antitumor activity by the National Cancer Institute criteria.
# Animal survival curve: When an individual animal reached to the termination endpoint (TV>2000 mm^3), the mouse was euthanized. The time from treatment initiation to the termination was deemed as its survival time. Survival curve was plotted by Kaplan-Meier method. Median survival time (MST) was calculated for each group. Increase of life span (ILS) was calculated according to the following formula: […]
# ILS (%)>25% is considered as a biologically significant survival benefit. […]
# [1] = Compound 1 0.3 mg/kg qd x 14, s.c.
smiles,measurement,setting,value
"CC(=O)N[C@@H](Cc1c[nH]c2ccccc12)C(=O)N[C@@H](CCC(=O)C=[N+]=[N-])C(=O)OC(C)C [Compound 1, Isopropyl (S)-2-((S)-2-acetamido-3-(1H-indol-3-yl)propanamido)-6-diazo-5-oxohexanoate]",ILS,[1],52.6%
same,MST,[1],29 days
same,ILS,"Compound 1 1 mg/kg qd x 14, sc",65.8%
same,MST,"Compound 1 1 mg/kg qd x 14, sc",31.5 days
same,RTV at day 16,"Cpd. 1 0.3 mg/kg qd x 14, s.c.",2.73 ± 0.37
same,RTV at day 16,"Cpd. 1 1 mg/kg qd x 14, sc",0.40 ± 0.11
same,T/C,"Cpd. 1 0.3 mg/kg qd x 14, s.c.",14.06%
same,TGI,"Cpd. 1 0.3 mg/kg qd x 14, s.c.",90.53%
same,T/C,"Cpd. 1 1 mg/kg qd x 14, sc",2.08%
same,TGI,"Cpd. 1 1 mg/kg qd x 14, sc",103.26%
